Test results as given in ChEMBL document CHEMBL1133225.
Active and inactive are the calls of the source. The rule behind the calls is not given here.

What was measured:
[1] = biological target: Acetylcholinesterase (Electrophorus electricus) (UniProt O42275); assay: Compound was tested against electric eel Acetylcholinesterase; Inactive
[2] = biological target: T1, Acetylcholinesterase (Mus musculus) (UniProt P21836); assay: Compound was tested against recombinant mouse Acetylcholinesterase; 5-40 uM, Modest inhibition
T1 sequence (whole entry): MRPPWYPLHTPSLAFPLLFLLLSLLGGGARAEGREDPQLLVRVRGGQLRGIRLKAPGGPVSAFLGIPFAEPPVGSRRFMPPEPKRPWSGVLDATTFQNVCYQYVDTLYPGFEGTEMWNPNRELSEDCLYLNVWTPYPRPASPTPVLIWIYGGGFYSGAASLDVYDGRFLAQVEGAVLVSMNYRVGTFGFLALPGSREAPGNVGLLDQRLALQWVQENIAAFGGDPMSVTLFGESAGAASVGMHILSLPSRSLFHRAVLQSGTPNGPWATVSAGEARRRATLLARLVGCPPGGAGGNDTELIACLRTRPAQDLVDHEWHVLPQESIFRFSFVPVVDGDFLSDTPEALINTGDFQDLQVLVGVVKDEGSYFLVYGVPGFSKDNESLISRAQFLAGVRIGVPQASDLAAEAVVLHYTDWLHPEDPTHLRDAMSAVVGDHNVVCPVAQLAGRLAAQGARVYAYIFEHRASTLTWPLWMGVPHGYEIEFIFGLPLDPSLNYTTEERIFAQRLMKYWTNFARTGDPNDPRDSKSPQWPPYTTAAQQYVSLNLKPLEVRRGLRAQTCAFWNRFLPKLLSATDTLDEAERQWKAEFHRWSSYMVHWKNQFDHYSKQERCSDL

Sequence of Acetylcholinesterase (Electrophorus electricus) (O42275 24-633 limits assumed): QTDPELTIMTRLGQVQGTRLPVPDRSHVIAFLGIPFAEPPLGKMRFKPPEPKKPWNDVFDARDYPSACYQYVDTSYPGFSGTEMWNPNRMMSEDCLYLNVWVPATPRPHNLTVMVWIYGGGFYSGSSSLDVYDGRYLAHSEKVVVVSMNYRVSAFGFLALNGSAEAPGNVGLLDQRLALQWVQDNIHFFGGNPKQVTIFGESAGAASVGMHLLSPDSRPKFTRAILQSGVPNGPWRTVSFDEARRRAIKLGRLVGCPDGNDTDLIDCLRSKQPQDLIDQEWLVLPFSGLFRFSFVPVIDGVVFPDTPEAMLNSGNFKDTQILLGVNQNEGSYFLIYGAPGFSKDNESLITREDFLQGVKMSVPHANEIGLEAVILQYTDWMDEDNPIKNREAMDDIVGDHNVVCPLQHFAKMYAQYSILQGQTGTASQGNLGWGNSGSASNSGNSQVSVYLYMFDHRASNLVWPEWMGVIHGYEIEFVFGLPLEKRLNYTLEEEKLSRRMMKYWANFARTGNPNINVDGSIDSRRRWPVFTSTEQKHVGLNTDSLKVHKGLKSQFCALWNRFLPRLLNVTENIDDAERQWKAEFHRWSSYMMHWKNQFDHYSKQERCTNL

SMILES | Activity [1] | Concentration [2] [µM]
COP(=O)(CC(=O)N[C@@H](CCCCNS(=O)(=O)c1ccc2ccc3cccc4ccc1c2c34)C(N)=O)OC | inactive | 40
COP(=O)(CC(=O)N[C@@H](CCCCNS(=O)(=O)c1ccc2ccc3cccc4ccc1c2c34)C(N)=O)SC (some centres undefined) | inactive | 40
